Source: patent US7582645B2, “Pyrimidine derivatives for treatment of hyperproliferative disorders” (Bayer Pharmaceuticals Corporation, priority 2003, dated 2009)

tested on: HCT116 cells; assay: HCT116 cytotoxic activity assay (Alamar Blue, 72 h); format: cell-based; conditions: Homo sapiens, HCT-116, 72 h compound exposure, greater than 500 nM but less than or equal to 2 μM
Protocol: Representative compounds of this invention were tested for cytotoxicity using the above-described assay procedure with the following results: […]

Compound	IC50
N#Cc1cc(Oc2ccc(Nc3cc(-c4cc(F)cc(F)c4)nc(N)n3)cc2)ccn1 [Example 276, 4-(4-{[2-amino-6-(3,5-difluorophenyl)pyrimidin-4-yl]amino}phenoxy)pyridine-2-carbonitrile]	500 to 2000 nM
NC(=O)c1cc(Oc2ccc(Nc3cc(-c4cc(F)cc(F)c4)nc(N)n3)cc2)ccn1 [Example 279, 4-(4-{[2-amino-6-(3,5-difluorophenyl)pyrimidin-4-yl]amino}phenoxy)pyridine-2-carboxamide]	500 to 2000 nM
NC(=O)c1cc(Oc2cccc(Nc3cc(-c4cccc(OCc5ccccc5)c4)nc(N)n3)c2)ccn1 [Example 281, 4-[3-({2-amino-6-[3-(benzyloxy)phenyl]pyrimidin-4-yl}amino)phenoxy]pyridine-2-carboxamide]	500 to 2000 nM
NC(=O)c1cc(Oc2cccc(Nc3cc(-c4cccc(N)c4)nc(N)n3)c2)ccn1 [Example 283, 4-(3-{[2-amino-6-(3-aminophenyl)pyrimidin-4-yl]amino}phenoxy) pyridine-2-carboxamide]	500 to 2000 nM
COc1ccc(-c2cc(Nc3cccc(Oc4ccnc(C(N)=O)c4)c3)nc(N)n2)cn1 [Example 284, 4-(3-{[2-amino-6-(6-methoxypyridin-3-yl)pyrimidin-4-yl]amino}phenoxy) pyridine-2-carboxamide]	500 to 2000 nM
NC(=O)c1cc(Oc2cccc(Nc3cc(-c4ccccc4F)nc(N)n3)c2)ccn1 [Example 286, 4-(3-{[2-amino-6-(2-fluorophenyl)pyrimidin-4-yl]amino}phenoxy) pyridine-2-carboxamide]	500 to 2000 nM
COc1ccccc1-c1cc(Nc2cccc(Oc3ccnc(C(N)=O)c3)c2)nc(N)n1 [Example 291, 4-(3-{[2-amino-6-(2-methoxyphenyl)pyrimidin-4-yl]amino}phenoxy) pyridine-2-carboxamide]	500 to 2000 nM
N#CCc1ccc(-c2cc(Nc3cccc(Oc4ccnc(C(N)=O)c4)c3)nc(N)n2)cc1 [Example 294, 4-[3-({2-amino-6-[4-(cyanomethyl)phenyl]pyrimidin-4-yl}amino)phenoxy]pyridine-2-carboxamide]	500 to 2000 nM
NC(=O)c1cc(Oc2cccc(Nc3cc(-c4cccnc4)nc(N)n3)c2)ccn1 [Example 297, 4-{3-[(2-amino-6-pyridin-3-ylpyrimidin-4-yl)amino]phenoxy} pyridine-2-carboxamide]	500 to 2000 nM

same assay, conditions: Homo sapiens, HCT-116, 72 h compound exposure, greater than 2 μM

Compound	IC50
NC(=O)c1cc(Oc2ccc(Nc3cc(-c4ccc(-c5ccccc5)c(F)c4)nc(N)n3)cc2)ccn1 [Example 260, 4-(4-{[2-amino-6-(2-fluorobiphenyl-4-yl)pyrimidin-4-yl]amino}phenoxy) pyridine-2-carboxamide]	> 2000 nM
NC(=O)c1cc(Oc2ccc(Nc3cc(-c4cccc(CO)c4)nc(N)n3)cc2)ccn1 [Example 265, 4-[4-({2-amino-6-[3-(hydroxymethyl)phenyl]pyrimidin-4-yl}amino)phenoxy]pyridine-2-carboxamide]	> 2000 nM
CC(C)c1cccc(-c2cc(Nc3ccc(Oc4ccnc(C(N)=O)c4)cc3)nc(N)n2)c1 [Example 270, 4-(4-{[2-amino-6-(3-isopropylphenyl)pyrimidin-4-yl]amino}phenoxy) pyridine-2-carboxamide]	> 2000 nM
NC(=O)c1cc(Oc2ccc(Nc3cc(-c4ccc(Cl)c(Cl)c4)nc(N)n3)cc2)ccn1 [Example 272, 4-(4-{[2-amino-6-(3,4-dichlorophenyl)pyrimidin-4-yl]amino}phenoxy)pyridine-2-carboxamide]	> 2000 nM
N#Cc1cc(Oc2ccc(Nc3cc(-c4cccc(OC(F)(F)F)c4)nc(N)n3)cc2)ccn1 [Example 274, 4-[4-({2-amino-6-[3-(trifluoromethoxy)phenyl]pyrimidin-4-yl}amino)phenoxy]pyridine-2-carbonitrile]	> 2000 nM
NC(=O)c1cc(Oc2ccc(Nc3cc(-c4cccc(OC(F)(F)F)c4)nc(N)n3)cc2)ccn1 [Example 277, 4-[4-({2-amino-6-[3-(trifluoromethoxy)phenyl]pyrimidin-4-yl}amino)phenoxy]pyridine-2-carboxamide]	> 2000 nM
NC(=O)c1cc(Oc2cccc(Nc3cc(-c4ccc(-c5ccccc5)cc4)nc(N)n3)c2)ccn1 [Example 280, 4-{3-[(2-amino-6-biphenyl-4-ylpyrimidin-4-yl)amino]phenoxy} pyridine-2-carboxamide]	> 2000 nM
NC(=O)c1cc(Oc2cccc(Nc3cc(-c4cccc(F)c4)nc(N)n3)c2)ccn1 [Example 285, 4-(3-{[2-amino-6-(3-fluorophenyl)pyrimidin-4-yl]amino}phenoxy) pyridine-2-carboxamide]	> 2000 nM
CN(C)c1ccc(-c2cc(Nc3cccc(Oc4ccnc(C(N)=O)c4)c3)nc(N)n2)cc1 [Example 287, 4-[3-({2-amino-6-[4-(dimethylamino)phenyl]pyrimidin-4-yl}amino)phenoxy]pyridine-2-carboxamide]	> 2000 nM
COc1ccc(C(C)C)cc1-c1cc(Nc2cccc(Oc3ccnc(C(N)=O)c3)c2)nc(N)n1 [Example 289, 4-(3-{[2-amino-6-(5-isopropyl-2-methoxyphenyl)pyrimidin-4-yl]amino}phenoxy)pyridine-2-carboxamide]	> 2000 nM
CC(C)c1ccc(-c2cc(Nc3cccc(Oc4ccnc(C(N)=O)c4)c3)nc(N)n2)cc1 [Example 293, 4-(3-{[2-amino-6-(4-isopropylphenyl)pyrimidin-4-yl]amino}phenoxy) pyridine-2-carboxamide]	> 2000 nM
Cc1ccc(-c2cc(Nc3cccc(Oc4ccnc(C(N)=O)c4)c3)nc(N)n2)cc1 [Example 295, 4-(3-{[2-amino-6-(4-methylphenyl)pyrimidin-4-yl]amino}phenoxy) pyridine-2-carboxamide]	> 2000 nM

same assay, conditions: Homo sapiens, HCT-116, 72 h compound exposure, less than or equal to 500 nM

Compound	IC50
CCc1cccc(-c2cc(Nc3ccc(Oc4ccnc(C(N)=O)c4)cc3)nc(N)n2)c1 [Example 261, 4-(4-{[2-amino-6-(3-ethylphenyl)pyrimidin-4-yl]amino}phenoxy) pyridine-2-carboxamide]	≤ 500 nM
COc1ccc(C(C)C)cc1-c1cc(Nc2ccc(Oc3ccnc(C(N)=O)c3)cc2)nc(N)n1 [Example 262, 4-(4-{[2-amino-6-(5-isopropyl-2-methoxyphenyl)pyrimidin-4-yl]amino}phenoxy)pyridine-2-carboxamide]	≤ 500 nM
Cc1ccccc1-c1cc(Nc2ccc(Oc3ccnc(C(N)=O)c3)cc2)nc(N)n1 [Example 263, 4-(4-{[2-amino-6-(2-methylphenyl)pyrimidin-4-yl]amino}phenoxy) pyridine-2-carboxamide]	≤ 500 nM
NC(=O)c1cc(Oc2ccc(Nc3cc(-c4ccc(F)cc4F)nc(N)n3)cc2)ccn1 [Example 264, 4-(4-{[2-amino-6-(2,4-difluorophenyl)pyrimidin-4-yl]amino}phenoxy)pyridine-2-carboxamide]	≤ 500 nM
CC(C)c1ccc(-c2cc(Nc3ccc(Oc4ccnc(C(N)=O)c4)cc3)nc(N)n2)cc1 [Example 266, 4-(4-{[2-amino-6-(4-isopropylphenyl)pyrimidin-4-yl]amino}phenoxy) pyridine-2-carboxamide]	≤ 500 nM
Cc1ccc(-c2cc(Nc3ccc(Oc4ccnc(C(N)=O)c4)cc3)nc(N)n2)cc1 [Example 267, 4-(4-{[2-amino-6-(4-methylphenyl)pyrimidin-4-yl]amino}phenoxy) pyridine-2-carboxamide]	≤ 500 nM
Cc1cccc(-c2cc(Nc3ccc(Oc4ccnc(C(N)=O)c4)cc3)nc(N)n2)c1 [Example 268, 4-(4-{[2-amino-6-(3-methylphenyl)pyrimidin-4-yl]amino}phenoxy) pyridine-2-carboxamide]	≤ 500 nM
NC(=O)c1cc(Oc2ccc(Nc3cc(-c4ccsc4)nc(N)n3)cc2)ccn1 [Example 269, 4-(4-{[2-amino-6-(3-thienyl)pyrimidin-4-yl]amino}phenoxy) pyridine-2-carboxamide]	≤ 500 nM
Cc1ccc(-c2cc(Nc3ccc(Oc4ccnc(C(N)=O)c4)cc3)nc(N)n2)cc1N [Example 271, 4-(4-{[2-amino-6-(3-amino-4-methylphenyl)pyrimidin-4-yl]amino}phenoxy)pyridine-2-carboxamide]	≤ 500 nM
CCOc1cccc(-c2cc(Nc3ccc(Oc4ccnc(C(N)=O)c4)cc3)nc(N)n2)c1 [Example 273, 4-(4-{[2-amino-6-(3-ethoxyphenyl)pyrimidin-4-yl]amino}phenoxy) pyridine-2-carboxamide]	≤ 500 nM
N#Cc1cc(Oc2ccc(Nc3cc(-c4ccccc4OC(F)(F)F)nc(N)n3)cc2)ccn1 [Example 275, 4-[4-({2-amino-6-[2-(trifluoromethoxy)phenyl]pyrimidin-4-yl}amino)phenoxy]pyridine-2-carbonitrile]	≤ 500 nM
NC(=O)c1cc(Oc2ccc(Nc3cc(-c4ccccc4OC(F)(F)F)nc(N)n3)cc2)ccn1 [Example 278, 4-[4-({2-amino-6-[2-(trifluoromethoxy)phenyl]pyrimidin-4-yl}amino)phenoxy]pyridine-2-carboxamide]	≤ 500 nM
Cc1cc(Oc2ccc(Nc3cc(-c4ccc(F)cc4)nc(N)n3)cc2)ccn1 [Example 282, 6-(4-fluorophenyl)-N4*-{4-[(2-methylpyridin-4-yl)oxy]phenyl} pyrimidine-2,4-diamine]	≤ 500 nM
CCc1cccc(-c2cc(Nc3cccc(Oc4ccnc(C(N)=O)c4)c3)nc(N)n2)c1 [Example 288, 4-(3-{[2-amino-6-(3-ethylphenyl)pyrimidin-4-yl]amino}phenoxy) pyridine-2-carboxamide]	≤ 500 nM
Cc1ccccc1-c1cc(Nc2cccc(Oc3ccnc(C(N)=O)c3)c2)nc(N)n1 [Example 290, 4-(3-{[2-amino-6-(2-methylphenyl)pyrimidin-4-yl]amino}phenoxy) pyridine-2-carboxamide]	≤ 500 nM
COc1cccc(-c2cc(Nc3cccc(Oc4ccnc(C(N)=O)c4)c3)nc(N)n2)c1 [Example 292, 4-(3-{[2-amino-6-(3-methoxyphenyl)pyrimidin-4-yl]amino}phenoxy) pyridine-2-carboxamide]	≤ 500 nM
Cc1cccc(-c2cc(Nc3cccc(Oc4ccnc(C(N)=O)c4)c3)nc(N)n2)c1 [Example 296, 4-(3-{[2-amino-6-(3-methylphenyl)pyrimidin-4-yl]amino}phenoxy) pyridine-2-carboxamide]	≤ 500 nM
